Measurements reported in patent US20250282728A1, “NITROGEN COMPRISING HETEROCYCLIC DERIVATIVES FOR THE TREATMENT OF DISORDERS ASSOCIATED WITH GPR55 RECEPTOR” (Cerevance, Inc., priority 2022, published 2025).

Tests used:
rat GPR55 = biological target: T1, rat GPR55 (Rattus norvegicus, UniProt F1MAK4); assay: Ca2+ mobilization assay (FLIPR, Calcium5 dye), rat GPR55; assay type: cell-based; conditions: HEK293 cells co-expressing PK-tagged rat GPR55 and EA-tagged beta-arrestin; intracellular calcium increase
T1 construct: expressed in transfected cells; host or cells: HEK293 (human embryonic kidney) cells
T1 sequence (F1MAK4 1-319): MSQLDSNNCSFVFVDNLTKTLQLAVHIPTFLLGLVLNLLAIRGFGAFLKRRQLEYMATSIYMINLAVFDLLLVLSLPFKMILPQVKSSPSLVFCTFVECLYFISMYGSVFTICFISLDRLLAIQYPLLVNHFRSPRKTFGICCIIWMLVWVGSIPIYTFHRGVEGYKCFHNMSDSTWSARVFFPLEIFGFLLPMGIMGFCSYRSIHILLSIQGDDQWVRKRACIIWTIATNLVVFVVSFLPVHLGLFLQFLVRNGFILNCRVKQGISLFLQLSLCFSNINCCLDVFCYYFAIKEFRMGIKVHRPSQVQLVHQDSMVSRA
Description: (§1) This cell-based assay measures the ability of compounds to activate the GPR55 receptor by measuring changes in intracellular calcium levels. HEK293 (human embryonic kidney) cells co-expressing recombinant ProLink (PK) tagged human or rat GPR55 and Enzyme Acceptor (EA) tagged beta-arrestin were seeded into PDL-coated, black-walled clear-bottom 384 well plates in assay buffer (25 mM HEPES, HBSS, 1 mM Probenicid, 0.1% BSA, pH 7.4) containing Calcium5 dye (Molecular Devices). Cells were incubated in suspension with the Calcium5 dye for 1 hour at 37° C., 5% CO2. Dilution series of the compounds in assay buffer were added to the cells in duplicate wells and compound-mediated real-time increases in intracellular calcium concentration were recorded as increased fluorescence using the Molecular Devices FLIPR instrument. Kinetic traces were reduced to a numerical value by subtracting the minimum response from the maximum response.

human GPR55 = biological target: T2, human GPR55 (Homo sapiens, UniProt Q9Y2T6); assay: Ca2+ mobilization assay (FLIPR, Calcium5 dye), human GPR55; assay type: cell-based; conditions: HEK293 cells co-expressing PK-tagged human GPR55 and EA-tagged beta-arrestin; intracellular calcium increase
T2 construct: expressed in transfected cells; host or cells: HEK293 (human embryonic kidney) cells
Description: as §1

T2 sequence (Q9Y2T6 whole entry): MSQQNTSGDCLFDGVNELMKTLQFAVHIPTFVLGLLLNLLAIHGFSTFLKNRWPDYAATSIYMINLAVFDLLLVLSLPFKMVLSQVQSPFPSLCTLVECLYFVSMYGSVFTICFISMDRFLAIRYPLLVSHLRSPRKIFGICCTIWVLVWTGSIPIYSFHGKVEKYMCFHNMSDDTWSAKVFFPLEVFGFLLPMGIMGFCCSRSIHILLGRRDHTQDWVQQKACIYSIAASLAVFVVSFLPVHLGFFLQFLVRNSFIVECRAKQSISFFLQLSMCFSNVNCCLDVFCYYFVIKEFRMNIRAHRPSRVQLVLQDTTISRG

Row | EC50 (rat GPR55) | EC50 (human GPR55) | Compound
1 | ≤ 1000 nM | ≤ 200 nM | OC(c1cncc(-c2cnc(N[C@@H]3CCc4ccccc43)cn2)c1)C(F)F (stereo partly drawn) [Example 45, 1-(5-(5-(((R)-2,3-dihydro-1H-inden-1-yl)amino)pyrazin-2-yl)pyridin-3-yl)-2,2-difluoroethan-1-ol]
2 | ≤ 5000 nM |  | C[C@@H](Nc1ncc(-c2cncc(S(C)(=O)=O)c2)cn1)c1ccc(F)cc1 [Example 25, (R)-N-(1-(4-fluorophenyl)ethyl)-5-(5-(methylsulfonyl)pyridin-3-yl)pyrimidin-2-amine]
3 | ≤ 5000 nM | ≤ 50 nM | Cc1cncc(-c2ccc(N[C@H](C)c3ccc(F)c(F)c3)nc2)c1 [Example 2, (R)-N-(1-(3,4-difluorophenyl)ethyl)-5′-methyl-[3,3′-bipyridin]-6-amine]
4 | ≤ 50 nM | ≤ 50 nM | C[C@@H](Nc1cnc(-c2cncc(S(C)(=O)=O)c2)cn1)c1ccc(F)cc1 [Example 18, (R)-N-(1-(4-fluorophenyl)ethyl)-5-(5-(methylsulfonyl)pyridin-3-yl)pyrazin-2-amine]
5 | ≤ 1000 nM | ≤ 1000 nM | Cc1cncc(-c2ccc(N[C@H](C)c3ccc(F)cc3)nc2)c1C [Example 11, (R)-N-(1-(4-fluorophenyl)ethyl)-4′,5′-dimethyl-[3,3′-bipyridin]-6-amine]
6 | ≤ 5000 nM | ≤ 5000 nM | C[C@@H](Nc1ccc(-c2ccc3c(c2)N(C)C(=O)C3(F)F)cn1)c1ccc(F)cc1 [Example 79, (R)-3,3-difluoro-6-(6-((1-(4-fluorophenyl)ethyl)amino)pyridin-3-yl)-1-methylindolin-2-one]
7 | ≤ 50 nM |  | Cc1cncc(-c2ccc(N[C@H](C)c3ccc(F)cc3)nc2)c1 [Example 3, (R)-N-(1-(4-fluorophenyl)ethyl)-5′-methyl-[3,3′-bipyridin]-6-amine]
8 | ≤ 1000 nM |  | CCc1cncc(-c2ccc(N[C@H](C)c3ccc(F)cc3)nc2)c1 [Example 4, (R)-5′-ethyl-N-(1-(4-fluorophenyl)ethyl)-[3,3′-bipyridin]-6-amine]
9 | ≤ 200 nM | ≤ 200 nM | CSCn1c(=O)oc2ccc(-c3cnc(N[C@H](C)c4ccc(F)cc4)nn3)cc21 [Example 70, (R)-5-(3-((1-(4-fluorophenyl)ethyl)amino)-1,2,4-triazin-6-yl)-3-((methylthio)methyl)benzo[d]oxazol-2(3H)-one]
10 | ≤ 5000 nM | ≤ 1000 nM | C[C@@H](Nc1ccc(-c2cncc(N(C)C)c2)cn1)c1ccc(F)cc1 [Example 12, (R)-N6′-(1-(4-fluorophenyl)ethyl)-N5,N5-dimethyl-[3,3′-bipyridine]-5,6′-diamine]
11 | ≤ 1000 nM | ≤ 1000 nM | Cc1cc(C(C)Nc2ncc(-c3ccc4oc(=O)n(C)c4c3)nn2)ccc1F (single isomer, unassigned) [Example 77a, 5-(3-((1-(4-fluoro-3-methylphenyl)ethyl)amino)-1,2,4-triazin-6-yl)-3-methylbenzo[d]oxazol-2(3H)-one]
12 | ≤ 1000 nM | ≤ 200 nM | C[C@@H](Nc1ncc(-c2ccc3oc(=O)n(C(F)F)c3c2)nn1)c1ccc(F)cc1 [Example 68, (R)-3-(difluoromethyl)-5-(3-((1-(4-fluorophenyl)ethyl)amino)-1,2,4-triazin-6-yl)benzo[d]oxazol-2(3H)-one]
13 | ≤ 1000 nM | ≤ 200 nM | CCS(=O)(=O)c1cncc(-c2ccc(N[C@H](C)c3ccc(F)cc3)nc2)c1 [Example 15, (R)-5′-(ethylsulfonyl)-N-(1-(4-fluorophenyl)ethyl)-[3,3′-bipyridin]-6-amine]
14 | ≤ 1000 nM | ≤ 1000 nM | CCc1cncc(-c2ccc(N[C@H](C)c3ccccc3F)nc2)c1 [Example 19, (R)-5′-ethyl-N-(1-(2-fluorophenyl)ethyl)-[3,3′-bipyridin]-6-amine]
15 | ≤ 1000 nM | ≤ 50 nM | C[C@@H](Nc1cnc(-c2cncc(C=C(F)F)c2)cn1)c1ccc(F)cc1 [Example 34, (R)-5-(5-(2,2-difluorovinyl)pyridin-3-yl)-N-(1-(4-fluorophenyl)ethyl)pyrazin-2-amine]
16 | ≤ 5000 nM | ≤ 1000 nM | C[C@@H](Nc1ccc(-c2ccc3oc(=O)[nH]c3c2)cn1)c1ccc(F)cc1 [Example 59, (R)-5-(6-((1-(4-fluorophenyl)ethyl)amino)pyridin-3-yl)benzo[d]oxazol-2(3H)-one]
17 | ≤ 1000 nM | ≤ 200 nM | C[C@@H](Nc1cnc(-c2cncc(OCC(F)(F)F)c2)cn1)c1ccc(F)cc1 [Example 42, (R)-N-(1-(4-fluorophenyl)ethyl)-5-(5-(2,2,2-trifluoroethoxy)pyridin-3-yl)pyrazin-2-amine]
18 | ≤ 1000 nM | ≤ 50 nM | C[C@@H](Nc1ncc(-c2cncc(S(C)(=O)=O)c2)nn1)c1ccc(F)cc1 [Example 28, (R)-N-(1-(4-fluorophenyl)ethyl)-6-(5-(methylsulfonyl)pyridin-3-yl)-1,2,4-triazin-3-amine]

Row | EC50 (rat GPR55) | EC50 (human GPR55) | Compound
19 | ≤ 5000 nM | ≤ 1000 nM | C[C@@H](Nc1cnc(-c2cnc3oc(=O)n(C)c3c2)cn1)c1ccc(F)cc1 [Example 26, (R)-6-(5-((1-(4-fluorophenyl)ethyl)amino)pyrazin-2-yl)-1-methyloxazolo[5,4-b]pyridin-2(1H)-one]
20 | ≤ 1000 nM | ≤ 50 nM | C=Cc1cncc(-c2cnc(N[C@H](C)c3ccc(F)cc3)cn2)c1 [Example 33, (R)-N-(1-(4-fluorophenyl)ethyl)-5-(5-vinylpyridin-3-yl)pyrazin-2-amine]
21 | ≤ 5000 nM | ≤ 200 nM | Cc1nc(N[C@H](C)c2ccc(F)cc2)ccc1-c1cncc(S(C)(=O)=O)c1 [Example 22, (R)-N-(1-(4-fluorophenyl)ethyl)-2-methyl-5′-(methylsulfonyl)-[3,3′-bipyridin]-6-amine]
22 | ≤ 5000 nM | ≤ 50 nM | C[C@@H](Nc1cnc(-c2cnnc(CC(F)(F)F)c2)cn1)c1ccc(F)cc1 [Example 57, (R)-N-(1-(4-fluorophenyl)ethyl)-5-(6-(2,2,2-trifluoroethyl)pyridazin-4-yl)pyrazin-2-amine]
23 | ≤ 1000 nM | ≤ 200 nM | COCn1c(=O)oc2ccc(-c3cnc(N[C@H](C)c4ccc(F)cc4)nn3)cc21 [Example 66, (R)-5-(3-((1-(4-fluorophenyl)ethyl)amino)-1,2,4-triazin-6-yl)-3-(methoxymethyl)benzo[d]oxazol-2(3H)-one]
24 | ≤ 5000 nM |  | C[C@@H](Nc1cnc(-c2cncc(CC(F)(F)F)c2)cn1)c1ccc(F)cc1 [Example 53, (R)-N-(1-(4-fluorophenyl)ethyl)-5-(5-(2,2,2-trifluoroethyl)pyridin-3-yl)pyrazin-2-amine]
25 | ≤ 50 nM |  | C[C@@H](Nc1ccc(-c2cncc(S(C)(=N)=O)c2)cn1)c1ccc(F)cc1 (mixture of isomers) [Example 27, (6′-(((R)-1-(4-fluorophenyl)ethyl)amino)-[3,3′-bipyridin]-5-yl)(imino)(methyl)-λ^6-sulfanone]
26 | ≤ 50 nM |  | CN=S(C)(=O)c1cncc(-c2ccc(N[C@H](C)c3ccc(F)cc3)nc2)c1 (mixture of isomers) [Example 30, (6′-(((R)-1-(4-fluorophenyl)ethyl)amino)-[3,3′-bipyridin]-5-yl)(methyl)(methylimino)-λ6-sulfanone]
27 | ≤ 1000 nM |  | C[C@@H](Nc1ccc(-c2cncc(S(C)(=N)=O)c2)cn1)c1ccc(F)cc1 (single isomer, unassigned) [Example 27b]
28 | ≤ 200 nM |  | C[C@@H](Nc1ccc(-c2cncc(S(C)(=N)=O)c2)cn1)c1ccc(F)cc1 (single isomer, unassigned) [Example 27a]
29 | ≤ 50 nM |  | C[C@@H](Nc1ccc(-c2cncc(C(F)(F)F)c2)cn1)c1ccc(F)cc1 [Example 8, (R)-N-(1-(4-fluorophenyl)ethyl)-5′-(trifluoromethyl)-[3,3′-bipyridin]-6-amine]
30 | ≤ 5000 nM |  | Cc1cncc(-c2ccc(NC(C)c3ccc(F)cc3)nc2)c1 (stereo not shown) [Example 1, N-(1-(4-fluorophenyl)ethyl)-5′-methyl-[3,3′-bipyridin]-6-amine]
31 | ≤ 1000 nM |  | CN=S(C)(=O)c1cncc(-c2ccc(N[C@H](C)c3ccc(F)cc3)nc2)c1 (single isomer, unassigned) [Example 30b]
32 | ≤ 200 nM |  | C[C@@H](Nc1ncc(-c2ccc3oc(=O)n(C)c3c2)nn1)c1ccc(F)cc1 [Example 64, (R)-5-(3-((1-(4-fluorophenyl)ethyl)amino)-1,2,4-triazin-6-yl)-3-methylbenzo[d]oxazol-2(3H)-one]
33 | ≤ 1000 nM |  | C[C@@H](Nc1ccc(-c2ccc3oc(=O)n(C)c3c2)cn1)c1ccc(F)cc1 [Example 60, (R)-5-(6-((1-(4-fluorophenyl)ethyl)amino)pyridin-3-yl)-3-methylbenzo[d]oxazol-2(3H)-one]
34 | ≤ 50 nM |  | CN=S(C)(=O)c1cncc(-c2ccc(N[C@H](C)c3ccc(F)cc3)nc2)c1 (single isomer, unassigned) [Example 30a]
35 | ≤ 5000 nM |  | C[C@@H](Nc1ncc(-c2cncc(CC(F)(F)F)c2)nn1)c1ccc(F)cc1 [Example 55, (R)-N-(1-(4-fluorophenyl)ethyl)-6-(5-(2,2,2-trifluoroethyl)pyridin-3-yl)-1,2,4-triazin-3-amine]
